{
  "source": "patent EP0097071A1",
  "about": "“Benzhydryl sulfinylacetamide derivatives and their therapeutical use” (LABORATOIRE L. LAFON Société anonyme dite:, priority 1982, dated 1983)",
  "key": {"SNC": {"tested_on": "SNC", "experiment": "Essential activity on the CNS (Tableau I and conclusions of the neuropsychopharmacological study)", "assay_type": "in vivo", "details": "in vivo", "excerpt": "Dans le tableau I ci-après, on a consigné un certain nombre de composés selon la formule I de façon nullement limitative, en mentionnant l'activité essentielle sur le SNC.\nLes composés de formule I agissent tous sur le SNC. Les produits des exemples 1-3 et 7-8 sont des agents stimulants, en revanche les produits des exemples 4-6 sont des agents sédatifs."}, "souris mâle [1]": {"tested_on": "souris mâle", "experiment": "Pentobarbital-induced sleep duration", "assay_type": "in vivo", "excerpt": "Les composés selon l'invention se distinguent du benzhydrylsulfinylacétamide (CRL 40476) précité par une différence d'action vis-à-vis du sommeil barbiturique. […]. Cette différence d'action qui est intéressante sur le plan thérapeutique est illustrée par le tableau IV"}, "[2]": {"details": "cited from earlier work"}, "rat": {"tested_on": "rat", "experiment": "Interaction with apomorphine, rat", "assay_type": "in vivo", "details": "apomorphine 0,5 mg/kg s.c., dose not stated", "description": "(§1) On a résumé ci-après les résultats des essais pharmacologiques qui ont été entrepris avec les produits selon la présente addition. Dans ces essais, les produits de formule I à étudier ont été administrés par voie intrapéritonéale, en suspension dans une solution aqueuse de gomme arabique, sous un volume de 20 ml/kg chez la souris mâle et sous un volume de 5 ml/kg chez le rat mâle.\nLe CRL 40933 est administré à des lots de 6 rats 0,5 h avant l'injection sous-cutanée de 0,5 mg/kg d'apomorphine."}, "souris [3]": {"tested_on": "souris", "experiment": "Four plates test", "assay_type": "in vivo", "details": "0,5 h after administration, dose not stated", "description": "as §1\n(§2) Les essais sont effectués sur des lots de 10 souris (par dose) 0,5 h après l'administration du CRL 40933."}, "souris [4]": {"tested_on": "souris", "experiment": "Spontaneous motility (actimeter)", "assay_type": "in vivo", "details": "32 mg/kg et 128 mg/kg i.p.", "description": "as §1\nUne demi-heure, après avoir reçu le CRL 40933, les souris (6 par dose, 12 témoins) sont placées en actimètre où leur motilité est enregistrée pendant 30 min."}, "souris [5]": {"tested_on": "souris", "experiment": "Traction test", "assay_type": "in vivo", "details": "0,5 h after administration, dose not stated", "description": "as §1, §2"}, "souris mâles": {"tested_on": "souris mâles", "experiment": "Global behaviour and reactivities, mouse", "assay_type": "in vivo", "details": "souris", "description": "as §1\n(§3) Pour apprécier le comportement global et les réactivités, des lots de six animaux (souris mâles ou rats mâles) ont été observés avant administration de chaque produit, puis 15 min, 30 min, 1 h, 2 h, 3 h et 24 h après administration de chaque produit. Les résultats sont consignés dans le tableau III ci-après, […]"}, "rats mâles": {"tested_on": "rats mâles", "experiment": "Global behaviour and reactivities, rat", "assay_type": "in vivo", "details": "64 mg/kg i.p.", "description": "as §1, §3"}, "souris [6]": {"tested_on": "souris", "experiment": "Electroshock", "assay_type": "in vivo", "details": "dose not stated", "description": "as §1, §2"}, "souris [7]": {"tested_on": "souris", "experiment": "Motility reduced by hypoxic aggression (acute hypobaric anoxia)", "assay_type": "in vivo", "details": "128 mg/kg i.p.", "description": "as §1\nUne demi-heure après avoir reçu le CRL 40933, les souris (10 par dose, 20 témoins) sont soumises à une anoxie hypobare aiguë [dépression de 600 mm Hg (soit environ 8 x 10^4 pascals) en 90 s, puis détente de 45 s], puis elles sont placées en actimètre où leur motilité est enregistrée pendant 10 min."}, "souris [8]": {"tested_on": "souris", "experiment": "Motility reduced by habituation to the enclosure", "assay_type": "in vivo", "details": "8 mg/kg, 32 mg/kg et surtout 128 mg/kg i.p.", "description": "as §1\nAprès 18 h de séjour dans les actimètres, les souris (6 par dose, 12 témoins) reçoivent le CRL 40933. Elles sont aussitôt replacées dans leurs enceintes respectives et, 30 min plus tard, on enregistre leur motilité pendant 30 min."}, "souris [9]": {"tested_on": "souris", "experiment": "Intergroup aggressiveness", "assay_type": "in vivo", "details": "dose not stated", "description": "as §1\nAprès avoir séjourné pendant 3 semaines dans chacune des moitiés d'une cage séparées par une cloison opaque, des groupes de 3 souris reçoivent le CRL 40933. 30 min plus tard, les deux groupes d'une même cage sont réunis par retrait de la cloison et on note le nombre de combats qui surviennent en 10 min."}, "souris [10]": {"tested_on": "souris", "experiment": "Asphyxic anoxia (gallamine triethiodide)", "assay_type": "in vivo", "details": "dose not stated", "description": "as §1\nDes lots de 10 souris par dose reçoivent le CRL 40933 30 min avant l'administration intrapéritonéale de 32 mg/kg de triiodoéthylate de gallamine."}, "souris [11]": {"tested_on": "souris", "experiment": "Interaction with barbital (sleep)", "assay_type": "in vivo", "description": "as §1\nUne demi-heure après l'administration de CRL 40933, des lots de 10 souris reçoivent une injection intrapéritonéale de 220 mg/kg de barbital."}, "rats": {"tested_on": "rats", "experiment": "Interaction with amphetamine (stereotypies)", "assay_type": "in vivo", "details": "rat; amphétamine 2 mg/kg i.p.; doses used, not stated", "description": "as §1\nL'amphétamine (2 mg/kg)est injectée par voie intrapéritonéale à des lots de 6 rats, 30 min après l'administration de CRL 40933."}, "souris mâle [12]": {"tested_on": "souris mâle", "experiment": "Toxicity, DL-0", "assay_type": "in vivo", "details": "i.p.", "description": "as §1\nLa toxicité a été étudiée chez la souris mâle. Les résultats relatifs à la DL-0 (dose minimale non mortelle) sont donnés dans le tableau II ci-après."}, "souris [13]": {"tested_on": "souris", "experiment": "Behavioural despair (forced immersion)", "assay_type": "in vivo", "details": "32 mg/kg et 128 mg/kg i.p.", "description": "as §1\nUne demi-heure après avoir reçu le CRL 40933, des lots de 10 souris par dose sont placés dans un espace restreint rempli d'eau sur une hauteur de 6 cm; on note la durée d'immobilité entre la 2e et la 6e minute suivant l'immersion."}, "souris [14]": {"tested_on": "souris", "experiment": "Interaction with oxotremorine", "assay_type": "in vivo", "description": "as §1\nLe CRL 40933 est administré à des lots de 6 souris 0,5 h avant l'injection intrapéritonéale de 0,5 mg/kg d'oxotrémorine."}, "souris [15]": {"tested_on": "souris", "experiment": "Interaction with reserpine", "assay_type": "in vivo", "details": "128 mg/kg i.p.", "description": "as §1\nQuatre heures après l'injection intrapéritonéale de 2,5 mg/kg de réserpine, des lots de 6 souris reçoivent le CRL 40933."}, "souris [16]": {"tested_on": "souris", "experiment": "Interaction with apomorphine, mouse", "assay_type": "in vivo", "description": "as §1\nDes lots de 6 souris par dose reçoivent le CRL 40933 0,5 h avant l'injection sous-cutanée d'apomorphine administrée à la dose de 1 ou 16 mg/kg."}},
  "data": [
    {"smiles": "NC(=O)C[S+]([O-])C(c1ccccc1)c1ccccc1", "note": "(centres unmarked) [CRL 40476, benzhydrylsulfinylacétamide, reference compound]", "values": [
      {"measurement": "Activité sur le SNC", "setting": "SNC", "value": "stimulant"},
      {"measurement": "Action sur la durée du sommeil induit par le pentobarbital (50 mg/kg i.p.) effet", "setting": "souris mâle [1]; dose de 8 à 256 mg/kg i.p., 0,5 h before pentobarbital", "value": "(b) (pas de modification significative de la durée du sommeil.)"},
      {"measurement": "durée du sommeil barbiturique induit par le pentobarbital", "setting": "souris mâle [1]; pentobarbital 50 mg/kg i.p. 0,5 h after i.p. test product, dose not stated", "value": "ne modifie pas"},
      {"measurement": "excitation avec hyperréactivité", "setting": "[2]; in vivo", "value": "présence"},
      {"measurement": "potentialisation des effets de l'apomorphine et de l'amphétamine", "setting": "[2]; in vivo", "value": "absence"},
      {"measurement": "stéréotypies", "setting": "[2]; sauf à fortes doses", "value": "absence"}
    ]},
    {"smiles": "CNC(=O)C[S+]([O-])C(c1ccccc1)c1ccccc1", "note": "(centres unmarked) [Exemple 1, N-méthyl-benzhydrylsulfinylacétamide]", "values": [
      {"measurement": "stéréotypies induites par l'apomorphine", "setting": "rat", "value": "laisse inchangées"},
      {"measurement": "nombre de passages punis", "setting": "souris [3]", "value": "n'entraîne pas d'augmentation"},
      {"measurement": "motilité spontanée", "setting": "souris [4]", "value": "augmentation modérée"},
      {"measurement": "déficit moteur (traction)", "setting": "souris [5]", "value": "ne provoque pas d'incapacité motrice majeure"},
      {"measurement": "solubilité dans l'éther et l'acétate d'éthyle", "setting": "Solubility", "value": "insoluble"},
      {"measurement": "solubilité dans le méthanol, l'éthanol et l'acétoné", "setting": "Solubility", "value": "soluble"},
      {"measurement": "solubility", "setting": "Solubility; water", "value": "< 1000", "unit": "µg/mL"},
      {"measurement": "Observations (comportement global et réactivités)", "setting": "souris mâles; 64 mg/kg i.p.", "value": "excitation"},
      {"measurement": "Observations (comportement global et réactivités)", "setting": "souris mâles; 128 mg/kg i.p.", "value": "excitation - hypothermie (-1,5°C) pendant 0,5 h"},
      {"measurement": "hypothermie", "setting": "souris mâles; 128 mg/kg i.p.", "value": "-1,5 °C"},
      {"measurement": "Observations (comportement global et réactivités)", "setting": "souris mâles; 256 mg/kg i.p.", "value": "dyspnée, excitation, démarche titu-bante"},
      {"measurement": "mortalité", "setting": "souris mâles; 256 mg/kg i.p.", "value": "pas de mortalité"},
      {"measurement": "Observations (comportement global et réactivités)", "setting": "rats mâles", "value": "mydriase pendant 3 h"},
      {"measurement": "effets convulsivants de l'électrochoc", "setting": "souris [6]", "value": "ne s'oppose pas"},
      {"measurement": "récupération motrice après séjour bref dans une enceinte à pression réduite", "setting": "souris [7]", "value": "amélioration modérée (mais non significative)"},
      {"measurement": "activité motrice chez la souris habituée à son enceinte", "setting": "souris [8]", "value": "reprise d'activité motrice"},
      {"measurement": "agressivité intergroupes (nombre de combats)", "setting": "souris [9]", "value": "ne modifie pas nettement"},
      {"measurement": "Activité sur le SNC", "setting": "SNC", "value": "stimulant"},
      {"measurement": "conclusion of the neuropsychopharmacological study: main type of CNS effect", "setting": "SNC", "value": "composante excitante"},
      {"measurement": "Action sur la durée du sommeil induit par le pentobarbital (50 mg/kg i.p.) effet", "setting": "souris mâle [1]; dose 128 mg/kg i.p., 0,5 h before pentobarbital", "value": "(a)"},
      {"measurement": "délai d'apparition des convulsions et de la mort consécutives à une anoxie asphyxique", "setting": "souris [10]", "value": "ne modifie pas"},
      {"measurement": "durée du sommeil barbiturique", "setting": "souris [11]; 32 mg/kg i.p.", "value": "n'entraîne pas de modifications sensibles"},
      {"measurement": "nombre de souris endormies", "setting": "souris [11]; 32 mg/kg i.p.", "value": "diminution nette"},
      {"measurement": "durée du sommeil barbiturique", "setting": "souris [11]; 128 mg/kg i.p.", "value": "diminue nettement"},
      {"measurement": "stéréotypies amphétaminiques", "setting": "rats", "value": "ne modifie pratiquement pas"},
      {"measurement": "DL-O", "setting": "souris mâle [12]", "value": "supérieure à 256 mg/kg"},
      {"measurement": "durée d'immobilité de la souris placée en immersion forcée", "setting": "souris [13]", "value": "diminue nettement"},
      {"measurement": "action hypothermisante de l'oxotrémorine", "setting": "souris [14]; 8 mg/kg à 128 mg/kg i.p.", "value": "s'oppose modérément"},
      {"measurement": "signes de stimulation cholinergique périphérique dus à l'oxotrémorine", "setting": "souris [14]; dose not stated", "value": "laisse pratiquement inchangés"},
      {"measurement": "tremblements induits par l'oxotrémorine", "setting": "souris [14]; dose not stated", "value": "ne modifie pas"},
      {"measurement": "hypothermie induite par la réserpine", "setting": "souris [15]", "value": "antagonise"},
      {"measurement": "ptôsis réserpinique", "setting": "souris [15]", "value": "sans modifier"},
      {"measurement": "hypothermie induite par l'apomorphine", "setting": "souris [16]; 128 mg/kg i.p.", "value": "ne s'oppose pas"},
      {"measurement": "own effect on temperature", "setting": "souris [16]; 128 mg/kg i.p.", "value": "hypothermisant"},
      {"measurement": "comportement de verticalisation et stéréotypies (apomorphine)", "setting": "souris [16]; dose not stated", "value": "ne modifie pas"}
    ]}
  ]
}
